Assay results as given in ChEMBL document CHEMBL5291721, “A preclinical secondary pharmacology resource illuminates target-adverse drug reaction associations of marketed drugs” (Nat Commun, 2023).

Columns and labels:
Adenosine receptor A2a = Adenosine receptor A2a (Homo sapiens, UniProt P29274)
[1] = biological target: Beta-1 adrenergic receptor (Homo sapiens, UniProt P08588); assay type: functional
[2] = biological target: T1, Type-1 angiotensin II receptor (Homo sapiens, UniProt P30556)
T1 sequence (P30556 whole entry): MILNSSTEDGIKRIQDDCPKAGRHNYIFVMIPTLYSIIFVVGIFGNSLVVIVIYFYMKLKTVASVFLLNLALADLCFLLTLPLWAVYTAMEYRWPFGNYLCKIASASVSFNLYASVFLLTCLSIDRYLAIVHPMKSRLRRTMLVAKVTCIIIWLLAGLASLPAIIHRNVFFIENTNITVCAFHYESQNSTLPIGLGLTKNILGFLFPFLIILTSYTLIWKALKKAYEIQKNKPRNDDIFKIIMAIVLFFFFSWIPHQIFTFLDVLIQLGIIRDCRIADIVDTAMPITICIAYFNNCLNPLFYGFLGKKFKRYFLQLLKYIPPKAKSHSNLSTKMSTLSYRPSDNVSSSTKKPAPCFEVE

[3] = biological target: T2, Muscarinic acetylcholine receptor M2 (Homo sapiens, UniProt P08172); assay type: functional, cell-based
T2 sequence (P08172 whole entry): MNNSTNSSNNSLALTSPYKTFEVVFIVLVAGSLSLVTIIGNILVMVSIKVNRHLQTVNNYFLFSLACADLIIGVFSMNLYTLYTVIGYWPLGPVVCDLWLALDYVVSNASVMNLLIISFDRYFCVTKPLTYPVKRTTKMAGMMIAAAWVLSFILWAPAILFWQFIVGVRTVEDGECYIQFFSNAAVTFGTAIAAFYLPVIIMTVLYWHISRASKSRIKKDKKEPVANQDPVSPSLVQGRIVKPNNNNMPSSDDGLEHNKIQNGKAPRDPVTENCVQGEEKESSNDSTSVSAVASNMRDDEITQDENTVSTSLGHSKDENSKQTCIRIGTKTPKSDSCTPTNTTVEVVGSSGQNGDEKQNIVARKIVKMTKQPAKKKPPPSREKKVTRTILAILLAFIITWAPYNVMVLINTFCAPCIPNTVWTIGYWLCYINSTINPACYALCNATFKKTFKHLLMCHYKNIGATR

[4] = biological target: Growth hormone secretagogue receptor type 1 (Homo sapiens, UniProt Q92847)
Chain of Growth hormone secretagogue receptor type 1 (Q92847 whole entry): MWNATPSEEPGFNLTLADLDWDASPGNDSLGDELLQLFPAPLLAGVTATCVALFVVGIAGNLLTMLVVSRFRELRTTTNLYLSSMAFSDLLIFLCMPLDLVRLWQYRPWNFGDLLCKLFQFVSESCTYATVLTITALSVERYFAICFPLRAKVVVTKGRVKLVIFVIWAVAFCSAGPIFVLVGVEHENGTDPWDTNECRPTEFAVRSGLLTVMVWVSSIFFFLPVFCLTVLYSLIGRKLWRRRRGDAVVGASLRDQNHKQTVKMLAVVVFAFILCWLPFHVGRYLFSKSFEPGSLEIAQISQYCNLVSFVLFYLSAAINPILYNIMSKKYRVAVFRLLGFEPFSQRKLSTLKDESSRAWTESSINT

[5] = biological target: T3, 5-hydroxytryptamine receptor 3A (Homo sapiens, UniProt P46098); assay type: functional
T3 sequence (P46098 whole entry): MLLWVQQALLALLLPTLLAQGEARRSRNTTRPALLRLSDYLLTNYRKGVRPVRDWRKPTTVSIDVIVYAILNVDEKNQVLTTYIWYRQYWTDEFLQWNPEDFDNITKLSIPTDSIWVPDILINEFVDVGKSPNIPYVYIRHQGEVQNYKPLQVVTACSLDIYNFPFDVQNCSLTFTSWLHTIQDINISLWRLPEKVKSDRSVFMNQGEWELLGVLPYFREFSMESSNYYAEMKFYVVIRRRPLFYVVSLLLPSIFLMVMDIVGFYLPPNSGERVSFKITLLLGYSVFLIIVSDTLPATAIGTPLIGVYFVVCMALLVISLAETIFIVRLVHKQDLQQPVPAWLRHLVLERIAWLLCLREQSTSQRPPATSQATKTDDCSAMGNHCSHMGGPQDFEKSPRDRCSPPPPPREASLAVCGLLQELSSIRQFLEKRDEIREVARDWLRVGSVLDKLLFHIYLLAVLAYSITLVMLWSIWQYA

Motilin receptor = Motilin receptor (Homo sapiens, UniProt O43193)
Chain of Motilin receptor (O43193 whole entry): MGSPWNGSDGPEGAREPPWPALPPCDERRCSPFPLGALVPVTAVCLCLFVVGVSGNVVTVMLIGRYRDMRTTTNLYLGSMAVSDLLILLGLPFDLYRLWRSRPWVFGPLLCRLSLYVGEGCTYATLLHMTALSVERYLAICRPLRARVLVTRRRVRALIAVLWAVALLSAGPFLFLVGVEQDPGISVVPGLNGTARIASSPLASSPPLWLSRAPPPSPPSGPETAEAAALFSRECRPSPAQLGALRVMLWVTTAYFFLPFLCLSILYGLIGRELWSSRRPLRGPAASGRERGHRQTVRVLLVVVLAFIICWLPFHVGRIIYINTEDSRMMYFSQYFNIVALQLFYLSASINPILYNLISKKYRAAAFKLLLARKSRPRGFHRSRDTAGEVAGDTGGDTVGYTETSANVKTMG

[6] = biological target: 3',5'-cyclic-AMP phosphodiesterase 4D (Homo sapiens, UniProt Q08499); assay type: functional
Chain of 3',5'-cyclic-AMP phosphodiesterase 4D (Q08499 whole entry): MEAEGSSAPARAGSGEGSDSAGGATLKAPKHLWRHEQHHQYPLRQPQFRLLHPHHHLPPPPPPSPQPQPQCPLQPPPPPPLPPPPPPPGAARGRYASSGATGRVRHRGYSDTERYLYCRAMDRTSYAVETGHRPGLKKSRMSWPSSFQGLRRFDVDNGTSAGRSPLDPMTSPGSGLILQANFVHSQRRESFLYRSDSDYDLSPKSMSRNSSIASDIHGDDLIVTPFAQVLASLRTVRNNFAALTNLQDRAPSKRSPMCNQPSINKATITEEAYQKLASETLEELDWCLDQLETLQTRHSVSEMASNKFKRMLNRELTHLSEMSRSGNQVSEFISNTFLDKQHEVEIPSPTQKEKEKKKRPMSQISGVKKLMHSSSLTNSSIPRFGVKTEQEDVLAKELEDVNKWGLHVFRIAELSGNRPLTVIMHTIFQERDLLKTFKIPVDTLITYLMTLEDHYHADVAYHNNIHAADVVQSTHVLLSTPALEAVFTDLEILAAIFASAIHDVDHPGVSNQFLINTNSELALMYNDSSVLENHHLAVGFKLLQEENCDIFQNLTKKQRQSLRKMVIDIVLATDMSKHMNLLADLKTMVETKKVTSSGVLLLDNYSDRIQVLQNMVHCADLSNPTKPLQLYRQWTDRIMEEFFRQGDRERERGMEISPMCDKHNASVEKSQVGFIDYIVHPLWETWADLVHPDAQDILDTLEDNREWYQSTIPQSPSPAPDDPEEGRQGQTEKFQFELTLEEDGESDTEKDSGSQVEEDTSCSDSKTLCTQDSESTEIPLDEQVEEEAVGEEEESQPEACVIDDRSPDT

[7] = biological target: T4, Equilibrative nucleoside transporter 1 (Homo sapiens, UniProt Q99808)
T4 sequence (Q99808 whole entry): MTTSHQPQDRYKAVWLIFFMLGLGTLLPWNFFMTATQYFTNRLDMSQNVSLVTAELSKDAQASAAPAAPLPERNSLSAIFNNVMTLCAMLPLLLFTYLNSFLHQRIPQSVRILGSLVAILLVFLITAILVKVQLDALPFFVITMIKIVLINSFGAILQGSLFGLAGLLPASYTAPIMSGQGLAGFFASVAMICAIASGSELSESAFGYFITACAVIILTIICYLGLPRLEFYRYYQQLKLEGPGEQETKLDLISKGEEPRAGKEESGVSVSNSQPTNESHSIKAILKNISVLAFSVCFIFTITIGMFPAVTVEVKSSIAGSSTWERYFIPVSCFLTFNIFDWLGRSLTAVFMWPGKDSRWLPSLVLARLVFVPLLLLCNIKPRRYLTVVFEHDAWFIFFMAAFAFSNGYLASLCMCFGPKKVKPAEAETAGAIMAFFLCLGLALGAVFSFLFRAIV

[8] = biological target: T5, Amine oxidase [flavin-containing] A (Homo sapiens, UniProt P21397); assay type: functional
T5 sequence (P21397 whole entry): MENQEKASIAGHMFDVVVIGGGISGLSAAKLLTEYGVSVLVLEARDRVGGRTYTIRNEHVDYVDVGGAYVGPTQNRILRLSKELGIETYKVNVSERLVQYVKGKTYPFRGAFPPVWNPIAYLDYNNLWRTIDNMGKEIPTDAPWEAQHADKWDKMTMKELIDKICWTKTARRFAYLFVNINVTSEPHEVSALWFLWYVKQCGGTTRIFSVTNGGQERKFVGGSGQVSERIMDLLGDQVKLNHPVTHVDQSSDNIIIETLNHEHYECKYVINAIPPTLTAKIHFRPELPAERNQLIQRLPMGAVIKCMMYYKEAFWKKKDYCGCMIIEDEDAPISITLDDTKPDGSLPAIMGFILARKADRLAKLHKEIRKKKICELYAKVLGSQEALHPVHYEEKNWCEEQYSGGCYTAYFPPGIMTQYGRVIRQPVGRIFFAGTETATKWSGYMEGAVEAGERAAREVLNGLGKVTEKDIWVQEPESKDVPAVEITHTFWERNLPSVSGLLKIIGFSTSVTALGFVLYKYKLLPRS

[9] = biological target: cGMP-inhibited 3',5'-cyclic phosphodiesterase 3A (Homo sapiens, UniProt Q14432); assay type: functional
Chain of cGMP-inhibited 3',5'-cyclic phosphodiesterase 3A (Q14432 whole entry): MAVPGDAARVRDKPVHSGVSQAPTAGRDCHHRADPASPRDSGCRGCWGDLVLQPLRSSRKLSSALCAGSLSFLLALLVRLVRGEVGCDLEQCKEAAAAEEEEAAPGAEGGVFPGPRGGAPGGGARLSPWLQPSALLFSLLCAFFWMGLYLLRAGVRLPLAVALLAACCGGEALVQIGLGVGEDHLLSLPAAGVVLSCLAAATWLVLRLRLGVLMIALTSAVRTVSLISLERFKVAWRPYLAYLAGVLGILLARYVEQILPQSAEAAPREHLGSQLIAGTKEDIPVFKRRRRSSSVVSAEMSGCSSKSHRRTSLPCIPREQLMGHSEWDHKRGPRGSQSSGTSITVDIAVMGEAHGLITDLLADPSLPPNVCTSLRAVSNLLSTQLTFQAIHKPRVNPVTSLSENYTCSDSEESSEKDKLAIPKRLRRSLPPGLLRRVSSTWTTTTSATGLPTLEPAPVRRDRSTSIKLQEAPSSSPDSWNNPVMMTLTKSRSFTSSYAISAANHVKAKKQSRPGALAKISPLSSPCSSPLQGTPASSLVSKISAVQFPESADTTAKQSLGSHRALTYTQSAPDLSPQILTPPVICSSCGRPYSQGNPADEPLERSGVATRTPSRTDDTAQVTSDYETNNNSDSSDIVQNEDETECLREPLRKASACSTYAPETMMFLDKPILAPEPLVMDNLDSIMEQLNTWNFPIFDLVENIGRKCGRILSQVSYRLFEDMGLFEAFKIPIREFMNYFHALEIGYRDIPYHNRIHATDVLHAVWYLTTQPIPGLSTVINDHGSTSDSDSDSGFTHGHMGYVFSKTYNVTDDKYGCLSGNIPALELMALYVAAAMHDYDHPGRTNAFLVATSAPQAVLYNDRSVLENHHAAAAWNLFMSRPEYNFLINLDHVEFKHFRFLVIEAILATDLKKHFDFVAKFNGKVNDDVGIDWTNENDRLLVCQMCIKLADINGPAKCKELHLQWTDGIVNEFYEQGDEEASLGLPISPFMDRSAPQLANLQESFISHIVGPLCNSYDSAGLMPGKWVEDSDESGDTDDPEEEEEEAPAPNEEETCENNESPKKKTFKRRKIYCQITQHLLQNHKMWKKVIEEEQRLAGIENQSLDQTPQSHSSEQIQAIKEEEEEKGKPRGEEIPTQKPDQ
Also: assay procedure not described here.

Chain of Beta-1 adrenergic receptor (P08588 whole entry): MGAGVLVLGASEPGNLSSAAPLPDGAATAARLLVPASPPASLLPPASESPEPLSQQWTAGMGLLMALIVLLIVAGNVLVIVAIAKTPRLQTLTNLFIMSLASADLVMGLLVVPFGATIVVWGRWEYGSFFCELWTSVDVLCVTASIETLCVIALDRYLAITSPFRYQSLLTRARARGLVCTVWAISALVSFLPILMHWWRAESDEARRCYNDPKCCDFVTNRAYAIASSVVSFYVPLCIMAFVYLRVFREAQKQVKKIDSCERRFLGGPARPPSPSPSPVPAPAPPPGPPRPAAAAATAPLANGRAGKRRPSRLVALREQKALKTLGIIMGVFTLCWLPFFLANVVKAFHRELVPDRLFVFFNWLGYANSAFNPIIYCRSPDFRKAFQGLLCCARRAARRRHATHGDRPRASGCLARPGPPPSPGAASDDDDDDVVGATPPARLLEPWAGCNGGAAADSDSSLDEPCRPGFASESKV
Chain of Adenosine receptor A2a (P29274 whole entry): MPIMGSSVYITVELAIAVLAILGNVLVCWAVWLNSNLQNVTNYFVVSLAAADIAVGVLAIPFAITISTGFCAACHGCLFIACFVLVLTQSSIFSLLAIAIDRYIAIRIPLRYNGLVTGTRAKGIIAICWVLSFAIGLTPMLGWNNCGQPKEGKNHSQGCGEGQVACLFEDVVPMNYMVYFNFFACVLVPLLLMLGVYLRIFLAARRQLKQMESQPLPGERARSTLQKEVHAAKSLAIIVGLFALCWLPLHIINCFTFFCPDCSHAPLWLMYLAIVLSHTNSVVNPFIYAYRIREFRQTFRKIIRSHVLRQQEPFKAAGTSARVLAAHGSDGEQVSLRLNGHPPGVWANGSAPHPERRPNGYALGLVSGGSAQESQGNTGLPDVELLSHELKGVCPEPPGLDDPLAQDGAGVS

| Structure (SMILES) | AC50 (Adenosine receptor A2a) | AC50 [1] | AC50 [2] | AC50 [3] | AC50 [4] | AC50 [5] | AC50 (Motilin receptor) | AC50 [6] | AC50 [7] | AC50 [8] | AC50 [9] |
| --- | --- | --- | --- | --- | --- | --- | --- | --- | --- | --- | --- |
| C[C@H]1CNCCc2ccc(Cl)cc21 [LORCASERIN] | > 30 µM | 8.3 µM | > 30 µM | > 30 µM | > 30 µM | > 30 µM | > 30 µM | > 30 µM | > 30 µM | > 30 µM | > 30 µM |
| Clc1ccc(C(c2ccccc2Cl)C(Cl)Cl)cc1 (stereo unspecified) [MITOTANE] | > 10 µM | > 10 µM | > 10 µM | > 10 µM | > 10 µM | > 30 µM | > 10 µM | > 30 µM | > 10 µM | > 10 µM | > 30 µM |
| CCCN1C[C@H](CSC)C[C@@H]2c3cccc4[nH]cc(c34)C[C@H]21 [PERGOLIDE] | > 30 µM | > 30 µM | > 30 µM | > 30 µM | > 30 µM | > 30 µM | > 30 µM | > 30 µM | > 30 µM | > 30 µM | > 30 µM |
| COCCCN1CCC(NC(=O)c2cc(Cl)c(N)c3c2OCC3)CC1 [PRUCALOPRIDE] | > 30 µM | > 30 µM | > 30 µM | > 30 µM | > 30 µM | 28 µM | > 30 µM | > 30 µM | > 30 µM | > 30 µM | > 30 µM |
| Cc1cn([C@H]2C[C@H](N=[N+]=[N-])[C@@H](CO)O2)c(=O)[nH]c1=O [ZIDOVUDINE] | > 30 µM | > 10 µM | > 30 µM | > 10 µM | > 30 µM | > 30 µM | > 10 µM | > 30 µM | > 30 µM | > 10 µM | > 30 µM |
| NS(=O)(=O)Cc1noc2ccccc12 [ZONISAMIDE] | > 10 µM | > 10 µM | > 10 µM | > 10 µM | > 10 µM | > 30 µM | > 10 µM | > 30 µM | > 10 µM | > 10 µM | > 30 µM |
| Cc1cn([C@H]2C=C[C@@H](CO)O2)c(=O)[nH]c1=O [STAVUDINE] | > 30 µM | > 10 µM | > 30 µM | > 10 µM | > 30 µM | > 10 µM | > 10 µM | > 30 µM | > 30 µM | > 30 µM | > 30 µM |
| Cc1cccc(Nc2ccccc2C(=O)O)c1C [MEFENAMIC ACID] | > 10 µM | > 10 µM | > 10 µM | > 10 µM | > 10 µM | > 30 µM | > 10 µM | > 30 µM | > 10 µM | > 10 µM | > 30 µM |
| CN1C(C(=O)Nc2ccccn2)=C(O)c2sc(Cl)cc2S1(=O)=O [LORNOXICAM] | > 30 µM | > 30 µM | > 30 µM | > 10 µM | > 30 µM | > 30 µM | > 10 µM | > 30 µM | > 30 µM | > 10 µM | > 30 µM |
| O=C(O[C@H]1C[C@H]2CC[C@@H](C1)[N+]21CCCC1)C(O)(c1ccccc1)c1ccccc1 [TROSPIUM] | > 30 µM | > 30 µM | > 30 µM | 0.0061 µM | > 30 µM | > 30 µM | > 30 µM | > 30 µM | > 30 µM | > 30 µM | > 30 µM |
| CCOC(=O)[C@H](CCc1ccccc1)N[C@@H](C)C(=O)N1[C@H](C(=O)O)C[C@@H]2CCC[C@@H]21 | > 30 µM | > 10 µM | > 30 µM | > 10 µM | > 30 µM | > 30 µM | > 10 µM | > 30 µM | > 30 µM | > 10 µM | > 30 µM |
| CS(=O)(=O)c1ccc(C2=C(c3ccccc3)C(=O)OC2)cc1 [ROFECOXIB] | > 30 µM | > 10 µM | > 30 µM | > 30 µM | > 30 µM | > 10 µM | > 10 µM | > 30 µM | > 30 µM | > 10 µM | > 30 µM |
| Cn1nnc2c(C(N)=O)ncn2c1=O [TEMOZOLOMIDE] | > 30 µM | > 30 µM | > 30 µM | > 30 µM | > 30 µM | > 30 µM | > 30 µM | > 30 µM | > 30 µM | > 30 µM | > 30 µM |
| CN(C)CCC(c1ccc(Cl)cc1)c1ccccn1 (stereo unspecified) [CHLORPHENIRAMINE] | > 30 µM | > 10 µM | > 30 µM | > 10 µM | > 30 µM | > 10 µM | > 10 µM | > 10 µM | > 30 µM | > 10 µM | > 10 µM |
| C[C@@H](O)[C@H]1C(=O)N2C(C(=O)O)=C(S[C@@H]3CN[C@H](C(=O)N(C)C)C3)[C@H](C)[C@H]12 [MEROPENEM] | > 300 µM | > 300 µM | > 300 µM | > 300 µM | > 300 µM | > 300 µM | > 300 µM | > 300 µM | > 300 µM | > 300 µM | > 300 µM |
| CC[C@H]1[C@@H](O)[C@@H]2[C@H](CC[C@]3(C)[C@@H]([C@H](C)CCC(=O)O)CC[C@@H]23)[C@@]2(C)CC[C@@H](O)C[C@@H]12 [OBETICHOLIC ACID] | > 30 µM | > 30 µM | > 30 µM | 16 µM | > 30 µM | > 30 µM | > 30 µM | > 30 µM | > 30 µM | > 30 µM | > 30 µM |
